PubChem BioAssay (NCI)
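Here, GI50 denotes the concentration required for 50% inhibition of growth. The concentration for full growth arrest is given as TGI.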

Legend:
Assay in all cases: inhibition of tumour cell growth, NCI panel, 384-well format
[1] = test system: 786-0 renal
[2] = test system: A498 renal
[3] = test system: A549 NSCLC
[4] = test system: ACHN renal
[5] = test system: BT-549 breast
[6] = test system: CAKI-1 renal
[7] = test system: CCRF-CEM leukemia
[8] = test system: COLO 205 colon
[9] = test system: DU-145 prostate
[10] = test system: EKVX NSCLC
[11] = test system: HCC-2998 colon
[12] = test system: HCT-116 colon
[13] = test system: HCT-15 colon
[14] = test system: HL-60(TB) leukemia
[15] = test system: HOP-62 NSCLC
[16] = test system: HOP-92 NSCLC
[17] = test system: HS 578T breast
[18] = test system: HT29 colon
[19] = test system: IGROV1 ovarian
[20] = test system: K-562 leukemia
[21] = test system: KM12 colon
[22] = test system: LOX IMVI melanoma
[23] = test system: M14 melanoma
[24] = test system: MALME-3M melanoma
[25] = test system: MCF7 breast
[26] = test system: MDA-MB-231 breast
[27] = test system: MDA-MB-435 melanoma
[28] = test system: MDA-MB-468 breast
[29] = test system: MOLT-4 leukemia
[30] = test system: NCI-H226 lung
[31] = test system: NCI-H23 lung
[32] = test system: NCI-H322M lung
[33] = test system: NCI-H460 NSCLC
[34] = test system: NCI-H522 lung
[35] = test system: NCI/ADR-RES ovarian
[36] = test system: OVCAR-3 ovarian
[37] = test system: OVCAR-4 ovarian
[38] = test system: OVCAR-5 ovarian
[39] = test system: OVCAR-8 ovarian
[40] = test system: PC-3 prostate
[41] = test system: RPMI-8226 leukemia
[42] = test system: RXF 393 renal
[43] = test system: SF-268 CNS
[44] = test system: SF-295 CNS
[45] = test system: SF-539 CNS
[46] = test system: SK-MEL-2 melanoma
[47] = test system: SK-MEL-28 melanoma
[48] = test system: SK-MEL-5 melanoma
[49] = test system: SK-OV-3 ovarian
[50] = test system: SN12C renal
[51] = test system: SNB-19 CNS
[52] = test system: SNB-75 CNS
[53] = test system: SW-620 colon
[54] = test system: T-47D breast
[55] = test system: TK-10 renal
[56] = test system: U251 glioblastoma
[57] = test system: UACC-257 melanoma
[58] = test system: UACC-62 melanoma
[59] = test system: UO-31 renal

## CCNC(=O)Nc1ccc(-c2nc3c(c(N4CCOC[C@@H]4C)n2)CCN(C2COC2)C3)cc1
[1]
  GI50: 1.19 µM
  TGI: > 100 µM
[2]
  GI50: 0.0938 µM
  TGI: 1.9 µM
[3]
  GI50: 0.48 µM
  TGI: > 100 µM
[4]
  GI50: 0.485 µM
  TGI: > 100 µM
[5]
  GI50: 0.22 µM
  TGI: 2.56 µM
[6]
  GI50: 0.323 µM
  TGI: 4.1 µM
[7]
  GI50: 0.325 µM
  TGI: 19.8 µM
[8]
  GI50: 0.347 µM
  TGI: > 100 µM
[9]
  GI50: 0.64 µM
  TGI: > 100 µM
[10]
  GI50: 0.381 µM
  TGI: 9.36 µM
[11]
  GI50: 0.44 µM
  TGI: > 100 µM
[12]
  GI50: 3.28 µM
  TGI: > 100 µM
[13]
  GI50: 0.669 µM
  TGI: > 100 µM
[14]
  GI50: 5.4 µM
  TGI: > 100 µM
[15]
  GI50: 0.494 µM
  TGI: 11 µM
[16]
  GI50: 0.605 µM
  TGI: 8.68 µM
[17]
  GI50: 0.116 µM
  TGI: 0.596 µM
[18]
  GI50: 4.78 µM
  TGI: > 100 µM
[19]
  GI50: 0.147 µM
  TGI: 0.885 µM
[20]
  GI50: 0.752 µM
  TGI: > 100 µM
[21]
  GI50: 0.479 µM
  TGI: > 100 µM
[22]
  GI50: 0.658 µM
  TGI: 13.8 µM
[23]
  GI50: 0.416 µM
  TGI: > 100 µM
[24]
  GI50: 0.167 µM
  TGI: 3.02 µM
[25]
  GI50: 0.131 µM
  TGI: 68.6 µM
[26]
  GI50: 0.476 µM
  TGI: > 100 µM
[27]
  GI50: 0.716 µM
  TGI: 7.41 µM
[28]
  GI50: 0.173 µM
  TGI: 2.38 µM
[29]
  GI50: 0.207 µM
  TGI: 11.1 µM
[30]
  GI50: 0.207 µM
  TGI: 3.33 µM
[31]
  GI50: 1.91 µM
  TGI: > 100 µM
[32]
  GI50: 0.527 µM
  TGI: > 100 µM
[33]
  GI50: 0.108 µM
  TGI: > 100 µM
[34]
  GI50: 0.159 µM
  TGI: 8.13 µM
[35]
  GI50: 11.4 µM
  TGI: > 100 µM
[36]
  GI50: 0.445 µM
  TGI: > 100 µM
[37]
  GI50: 0.279 µM
  TGI: 3.45 µM
[38]
  GI50: 1.04 µM
  TGI: > 100 µM
[39]
  GI50: 0.966 µM
  TGI: > 100 µM
[40]
  GI50: 0.218 µM
  TGI: > 100 µM
[41]
  GI50: 0.0387 µM
  TGI: 0.276 µM
[42]
  GI50: 0.212 µM
  TGI: 2.13 µM
[43]
  GI50: 1.22 µM
  TGI: > 100 µM
[44]
  GI50: 0.305 µM
  TGI: 2.54 µM
[45]
  GI50: 0.656 µM
  TGI: > 100 µM
[46]
  GI50: 1.89 µM
  TGI: 7.59 µM
[47]
  GI50: 0.443 µM
  TGI: 28 µM
[48]
  GI50: 0.221 µM
  TGI: 2.26 µM
[49]
  GI50: 0.189 µM
  TGI: 5.37 µM
[50]
  GI50: 0.31 µM
  TGI: > 100 µM
[51]
  GI50: 2.82 µM
  TGI: > 100 µM
[52]
  GI50: 0.0462 µM
  TGI: 0.98 µM
[53]
  GI50: 2.28 µM
  TGI: > 100 µM
[54]
  GI50: 0.0263 µM
  TGI: 0.437 µM
[55]
  GI50: 0.39 µM
  TGI: 5.65 µM
[56]
  GI50: 1.35 µM
  TGI: > 100 µM
[57]
  GI50: 1.45 µM
  TGI: 14.6 µM
[58]
  GI50: 0.366 µM
  TGI: 3.81 µM
[59]
  GI50: 0.654 µM
  TGI: > 100 µM
